ChEMBL document CHEMBL5614449, “Open Source Code Contributions to Global Health: The Case of Antimalarial Drug Discovery” (ACS Med Chem Lett, 2024)

Test system: Plasmodium
Test: Antiplasmodial activity against Plasmodium
Assay type: functional, organism-based

Compound	IC50
FC(F)Oc1ccc(-c2nnc3cncc(OCCc4ccccc4)n23)cc1	170 nM
FC(F)Oc1ccc(-c2nnc3cncc(OCc4ccc5c(c4)OCO5)n23)cc1	> 10000 nM
Fc1cccc(OCCOc2cncc3nnc(-c4ccc(OC(F)F)cc4)n23)c1	1350 nM
FC(F)Oc1ccc(-c2nnc3cncc(OCCCC(F)(F)F)n23)cc1	410 nM
FC(F)Oc1ccc(-c2nnc3cncc(OCc4ccc(C(F)(F)F)cc4)n23)cc1	5270 nM
Fc1cc2c(cc1F)C(COc1cncc3nnc(-c4ccc(OC(F)F)cc4)n13)C2 (stereo not drawn)	480 nM
FC(F)Oc1ccc(-c2nnc3cncc(OCc4cc5c(cc4Cl)OCO5)n23)cc1	> 25000 nM
FC(F)Oc1ccc(-c2nnc3cncc(OCc4ccccc4C(F)(F)F)n23)cc1	890 nM
FC(F)Oc1ccc(-c2nnc3cncc(OCc4cccc(C(F)(F)F)c4)n23)cc1	390 nM
FC(F)Oc1ccc(-c2nnc3cncc(OCc4csc(C(F)(F)F)c4)n23)cc1	2460 nM
FC(F)Oc1ccc(-c2nnc3cncc(OCc4cnccc4C(F)(F)F)n23)cc1	5900 nM
FC(F)Oc1ccc(-c2nnc3cncc(OCc4cc(OC(F)F)ccn4)n23)cc1	5040 nM
O=[N+]([O-])c1cccc(CCOc2cncc3nnc(-c4ccc(OC(F)F)cc4)n23)c1	250 nM
Fc1cccc(F)c1COc1cncc2nnc(-c3ccc(OC(F)F)cc3)n12	4080 nM
COC(COc1cncc2nnc(-c3ccc(OC(F)F)cc3)n12)c1ccccc1 (stereo not drawn)	110 nM
FC(F)Oc1ccc(-c2nnc3cncc(OCc4ccccc4)n23)cc1	1120 nM
FC(F)Oc1ccc(-c2nnc3cncc(OCc4cccc(Br)c4)n23)cc1	670 nM
COC(COc1cncc2nnc(-c3ccc(OC(F)F)cc3)n12)c1ccc(OC(F)F)cc1 (stereo not drawn)	77 nM
